Patent publication US10603357B2, “Therapeutic TREM-1 peptides” (Universite de Lorraine, priority 2004, dated 2020)

How the values were obtained:
human monocytes = assay: in vitro stimulation of monocytes: TNF-α, IL-1β and sTREM-1 release; type: cell-based; details: P5 or control peptide 10 to 100 ng/mL, rIL-10 500 U/mL
Experimental: For cell activation, primary monocytes were cultured in 24-well flat-bottom tissue culture plates in the presence of LPS (1 μg/mL). In some experiments this stimulus was provided in combination with P5 (10 to 100 ng/mL), control peptide (10 to 100 ng/mL) or rIL-10 (500 U/mL). To activate monocytes through TREM-1, an agonist anti-TREM-1 mAb (10 μg/mL) was added as indicated. Cell-free supernatants were analysed for production of TNF-α, IL-1β. and sTREM-1 by ELISA or immunodot. All experiments were performed in triplicate and data are expressed as means (SEM). • a: Media • b: P5 10 ng/mL • c: Anti-TREM-1 • d: LPS • e: LPS+Anti-TREM-1 • f: LPS+P5 10 ng/mL • g: LPS+P5 50 ng/mL • h: LPS+P5 100 ng/mL • i: LPS+IL10
Ten mL of peripheral blood samples were collected on EDTA-K from 5 healthy volunteer donors originating from laboratory staff. After dilution in RPMI (Life Technologies, Grand Island, N.Y.) v/v, blood was centrifuged for 30 min at room temperature over a Ficoll gradient (Amersham Pharmacia, Uppsala, Sweden) to isolate PBMC. The cells recovered above the gradient were washed and counted. In order to deplete the suspensions of lymphocytes, cells were then plated in 24-well flat-bottom tissue culture plates (Corning, Corning, N.Y.) at a concentration of 5×10^6/mL and allowed to adhere during 2 hours at 37° C. The resulting lymphocyte suspension was discarded and the adhering monocytic cells were maintained in a 5% CO2 incubator at 37° C. in complete medium (RPMI 1640, 0.1 mM sodium pyruvate, […], 50 μg/mL Streptomycin; Life Technologies) supplemented with 10% FCS (Invitrogen, Cergy, France).
For activation, monocytes were cultured in the presence of E. coli LPS (0111:B4, 1 μg/mL, Sigma-Aldrich, La Verpillière, France). Cell viability was assessed by trypan blue exclusion and by measuring lactate dehydrogenase release. In some experiments, this stimulus was given in combination with TNF-α (5 to 100 ng/mL, R&D Systems, Lille, France), IL-1β (5 to 100 ng/mL, R&D Systems), rIFN-γ (up to 100 U/mL, R&D Systems), rIL-10 (500 U/ml, R&D Systems) or up to 100 ng/mL of P5 or control peptide.
(§1) In order to activate monocytes through TREM-1, an anti-TREM-1 agonist monoclonal antibody (R&D Systems) was added as follows: flat-bottom plates were precoated with 10 μg/mL anti-TREM-1 per well. After thorough washing in phosphate buffered saline (PBS), the monocyte suspensions were added at a similar concentration as above. Some experiments were performed in the presence of protease inhibitors (PMSF and Protease Cocktail Inhibitor; Invitrogen). Cell-free supernatants were assayed for the production of TNF-α and IL-1β by ELISA according to the recommendations of the manufacturer (BD Biosciences, San Diego, USA). To address the effect of P5 on NF-κB activity in monocytes, an ELISA-based assay was performed (BD Mercury™ Transfactor Kit, BD Biosciences). Monocytes were cultured for 24 hours in the presence of E. coli LPS (O111:B4, 1 μg/mL), and/or an agonist anti-TREM-1 monoclonal antibody (10 μg/mL), and/or P5 (100 ng/mL). Whole-cell extracts were then prepared and levels of NF-κB p50 and p65 were determined according to the recommendations of the manufacturer. All experiments were performed in triplicate and data are expressed as means (SEM). Identification and Quantitation of sTREM-1 Release
Primary monocytes suspensions were cultured as described above. The cells were treated with E. coli LPS (0111:B4, 1 μg/mL) for 24 hours at 37° C. Cell-conditioned medium was submitted to Western-blotting using an anti-TREM-1 monoclonal antibody (R&D Systems) in order to confirm the presence of 27 kDa material recognized by anti-TREM-1. Soluble TREM-1 levels were measured by assessing the optical intensity of bands on immunodots by means of a reflectance scanner and the Quantity One Quantitation Software (Bio-Rad, Cergy, France) as reported elsewhere (18). […]

NF-κB p50 and p65 = assay: NF-κB activity in monocytes (ELISA-based assay); type: cell-based, human; details: P5 100 ng/mL, 24 hours
Experimental: Monocytes were cultured for 24 hours in the presence of E. coli LPS (O111:B4, 1 μg/mL), anti-TREM-1 mAb (10 μg/mL) and/or P5 (100 ng/mL) as indicated and the levels of NFκB p50 and p65 were determined using an ELISA-based assay. Experiments were performed in triplicate and data are expressed as means of optical densities (SEM).
as §1, with “Monocytes were cultured for 24 hours in the presence of E. coli LPS (O111:B4, 1 μg/mL), and/or an agonist anti-TREM-1 monoclonal antibody (10 μg/mL), and/or P5 (100 ng/mL).” left out

With LQVTDSGLYRCVIYHPP [P5] the “TNF-α and IL-1β production (release of inflammatory cytokines) in monocyte supernatant” value (human monocytes; LPS 1 μg/mL or LPS + anti-TREM-1 mAb) was “reduced, in a concentration-dependent manner”, the “release of sTREM-1 from monocytes cultured with LPS” value (human monocytes; LPS 1 μg/mL) was “increased” and the “effect of LPS on NF-κB activation” value (NF-κB p50 and p65; LPS 1 μg/mL) was “did not alter”. The “NF-κB activation induced by the engagement of TREM-1” value (NF-κB p50 and p65; anti-TREM-1 mAb 10 μg/mL) was “inhibited”.
